Data set [1] in a line: cells. Conditions: Homo sapiens, HEK-293T.
Description: Agonist activity at human STING HAQ expressed in 293T cells by digitonin cell based assay
Data set [2] addresses T1, Stimulator of interferon genes protein (Homo sapiens, UniProt Q86WV6). As to the kind of experiment: Agonist activity at human wild type STING expressed in 293T cells by digitonin cell based assay. On the set-up: species or system HEK293T.
The nature of data set [3]: cells. The settings on record: Homo sapiens, HEK-293T. The source holds these as a separate data set.
Description: Agonist activity at human STING AQ expressed in 293T cells by digitonin cell based assay
Data set [4] is described as follows: cells. Conditions: Homo sapiens, HEK-293T. This is another data set of the same source.
Description: Agonist activity at human STING Q expressed in 293T cells by digitonin cell based assay
A short description of data set [5]: cells. The settings on record: Homo sapiens, HEK-293T. The source holds these as a separate data set.
Description: Agonist activity at human STING REF expressed in 293T cells by digitonin cell based assay
Data set [6] concerns the target T1, Stimulator of interferon genes protein. Conditions: filed as agonist.
Description: Binding affinity to human wild type STING assessed as change in melting temperature by differential scanning fluorimetry (DSF) method
A short description of data set [7]: Induction of TNFalpha secretion in human PBMC incubated for 16 hrs.
A short description of data set [8]: Cytotoxicity against human PBMC cells. The class given is toxicity, cell-based.
Data set [9] can be described thus: Induction of IFNgamma secretion in human PBMC incubated for 16 hrs.
Data set [10] can be described thus: Induction of IFNalpha secretion in human PBMC incubated for 16 hrs.
Data set [11] addresses T1, Stimulator of interferon genes protein. As to the kind of experiment: Agonist activity at human wild type full length STING expressed in 293T cells incubated for 7 hrs by luciferase/cell based assay. On the set-up: species or system HEK-293T.

Bounds are passed on as bounds.

Usually EC50 stands for the concentration giving half of the maximal effect. Read a low EC50 as higher potency in that assay. Usually ΔTm stands for the change in melting temperature against a reference sample.

T1 sequence (Q86WV6 whole entry): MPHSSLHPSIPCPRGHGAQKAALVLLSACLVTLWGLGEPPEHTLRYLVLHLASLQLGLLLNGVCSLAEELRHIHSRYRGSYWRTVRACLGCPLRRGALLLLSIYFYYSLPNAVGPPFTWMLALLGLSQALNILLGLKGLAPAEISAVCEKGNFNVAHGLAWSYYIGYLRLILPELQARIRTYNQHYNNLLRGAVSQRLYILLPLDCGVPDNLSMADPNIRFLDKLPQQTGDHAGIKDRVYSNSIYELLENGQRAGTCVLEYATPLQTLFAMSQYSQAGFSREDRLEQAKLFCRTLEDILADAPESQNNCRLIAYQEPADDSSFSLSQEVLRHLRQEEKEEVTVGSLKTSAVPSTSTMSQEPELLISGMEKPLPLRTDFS

In the case of `Nc1nc2c(ncn2[C@@H]2O[C@@H]3COP(=O)(O)O[C@H]4[C@@H](O)[C@H](n5cc(-c6ccc7ccccc7c6)c6c(N)ncnc65)O[C@@H]4COP(=O)(O)O[C@@H]2[C@@H]3O)c(=O)[nH]1`, the EC50 in the data set “cells [1]” worked out at 695 nM; in [2], 48 nM; in “cells [3]”, 550 nM; in the data set “cells [4]”, 700 nM; in “cells [5]”, 1400 nM; in [7] it was 98800 nM. Further, in [6], the ΔTm was found to be 14.4 °C. Also, in data set [8], the Activity entry is on record as “Non-Toxic”.
Regarding `Nc1nc2c(ncn2[C@@H]2O[C@@H]3COP(=O)(O)O[C@H]4[C@@H](O)[C@H](n5cc(-c6ccccc6)c6c(N)ncnc65)O[C@@H]4COP(=O)(O)O[C@@H]2[C@@H]3O)c(=O)[nH]1`, the EC50 came to 385 nM in the data set “cells [1]”; 63 nM in data set [2]; 307 nM in “cells [3]”; 1700 nM in the data set “cells [4]”; 5900 nM in “cells [5]”; 52400 nM in data set [7]. The shift in melting temperature (ΔTm) in data set [6] worked out at 8.1 °C. Moreover, the Activity entry in data set [8] was “Non-Toxic”.
Regarding `Nc1nc2c(ncn2[C@@H]2O[C@@H]3COP(=O)(O)O[C@H]4[C@@H](O)[C@H](n5cnc6c(N)ncnc65)O[C@@H]4COP(=O)(O)O[C@H]3[C@H]2O)c(=O)[nH]1`, the values for the EC50 in [9], in data set [10] and in data set [7] were 17200 nM, 7650 nM and 18700 nM, respectively. Also, the Activity result in data set [8] is “Non-Toxic”.
On to `Nc1nc2c(ncn2[C@@H]2O[C@@H]3COP(=O)(O)O[C@H]4[C@@H](O)[C@H](n5cc(-c6cccs6)c6c(N)ncnc65)O[C@@H]4COP(=O)(O)O[C@@H]2[C@@H]3O)c(=O)[nH]1`, for which the Activity entry in data set [8] is recorded as “Non-Toxic”.
Turning to `Nc1nc2c(ncn2[C@@H]2O[C@@H]3COP(=O)(O)O[C@H]4[C@@H](O)[C@H](n5cc(-c6ccc7c8c(cccc68)CC7)c6c(N)ncnc65)O[C@@H]4COP(=O)(O)O[C@@H]2[C@@H]3O)c(=O)[nH]1`, the EC50 was 1630 nM in the data set “cells [1]”; 1160 nM in data set [2]; 1530 nM in “cells [3]”; 35800 nM in “cells [4]”; 85200 nM in data set [9]; more than 45000 nM in “cells [5]”. For the same compound, the concentration for a half-maximal effect (EC50) in [11] was more than 150000 nM; in [10], 74700 nM; in data set [7] it was more than 200000 nM. Also, the ΔTm in data set [6] came out at 2.5 °C. For the same compound, the Activity entry in [8] was “Non-Toxic”.
Consider `Nc1nc2c(ncn2[C@@H]2O[C@@H]3COP(=O)(O)O[C@H]4[C@@H](O)[C@H](n5cc(-c6cccc7ccccc67)c6c(N)ncnc65)O[C@@H]4COP(=O)(O)O[C@@H]2[C@@H]3O)c(=O)[nH]1`, for which the EC50 is 497 nM in “cells [1]”; 1100 nM in data set [2]; 470 nM in the data set “cells [3]”; 7230 nM in “cells [4]”; 18900 nM in “cells [5]”; more than 200000 nM in data set [7]. Further, in data set [6], the ΔTm is 4.4 °C. Besides, the Activity result in data set [8] is on record as “Non-Toxic”.
Take `Nc1nc2c(c(-c3ccccc3)cn2[C@@H]2O[C@@H]3COP(=O)(O)O[C@H]4[C@@H](O)[C@H](n5cc(-c6ccccc6)c6c(N)ncnc65)O[C@@H]4COP(=O)(O)O[C@@H]2[C@@H]3O)c(=O)[nH]1`: the 50% effective concentration (EC50) in the data set “cells [1]” is 9420 nM; in [2], 6410 nM; in “cells [3]” it was 10300 nM; in the data set “cells [4]” it was 271 nM; in “cells [5]” it was 19500 nM; in data set [11] it was more than 150000 nM. In addition, the ΔTm in data set [6] was 1 °C.
Take `Nc1nc2c(ncn2[C@@H]2O[C@@H]3COP(=O)(O)O[C@H]4[C@@H](O)[C@H](n5cc(C6CC6)c6c(N)ncnc65)O[C@@H]4COP(=O)(O)O[C@@H]2[C@@H]3O)c(=O)[nH]1`: in data set [8], the Activity result is listed as “Non-Toxic”.
For the compound `Nc1nc2c(ncn2[C@@H]2O[C@@H]3COP(=O)(O)O[C@H]4[C@@H](O)[C@H](n5cc(-c6cccc7c6oc6ccccc67)c6c(N)ncnc65)O[C@@H]4COP(=O)(O)O[C@@H]2[C@@H]3O)c(=O)[nH]1`, the EC50 in the data set “cells [1]” worked out at 503 nM; in data set [2], 367 nM; in “cells [3]”, 869 nM; in “cells [4]” it was 7070 nM; in “cells [5]”, 8970 nM; in [7], 99700 nM. In addition, the ΔTm in data set [6] worked out at 7.1 °C. The Activity result in data set [8] is recorded as “Non-Toxic”.
As to `Nc1nc2c(ncn2[C@@H]2O[C@@H]3COP(=O)(O)O[C@@H]4[C@H](O)[C@@H](COP(=O)(O)O[C@@H]2[C@@H]3O)O[C@H]4n2cnc3c(N)ncnc32)c(=O)[nH]1`, the EC50 worked out at 189 nM in “cells [1]”; 260 nM in data set [2]; 173 nM in the data set “cells [3]”; 7090 nM in “cells [4]”; 11800 nM in [9]; 59500 nM in “cells [5]”. The concentration giving a half-maximal response (EC50) in data set [11] was more than 150000 nM; in data set [10], 7210 nM; in data set [7] it was 44500 nM. Besides, the ΔTm in data set [6] worked out at 2.5 °C. Besides, the Activity entry in data set [8] was “Non-Toxic”.
Take `Nc1nc2c(ncn2[C@@H]2O[C@@H]3COP(=O)(O)O[C@H]4[C@@H](O)[C@H](n5cc(-c6ccc(-c7ccccc7)cc6)c6c(N)ncnc65)O[C@@H]4COP(=O)(O)O[C@@H]2[C@@H]3O)c(=O)[nH]1`: the concentration giving a half-maximal response (EC50) in the data set “cells [1]” worked out at 173 nM; in data set [2] it was 13 nM; in “cells [3]” it was 92 nM; in the data set “cells [4]”, 235 nM; in [9], 2050 nM; in the data set “cells [5]”, 346 nM. The EC50 in data set [10] came out at 7430 nM; in data set [7], 13600 nM. Also, the ΔTm in data set [6] was found to be 12.3 °C. Besides, in [8], the Activity result is recorded as “Non-Toxic”.
With `Nc1nc2c(ncn2[C@@H]2O[C@@H]3COP(=O)(O)O[C@H]4[C@@H](O)[C@H](n5cc(-c6ccc(-c7ccc8ccccc8c7)cc6)c6c(N)ncnc65)O[C@@H]4COP(=O)(O)O[C@@H]2[C@@H]3O)c(=O)[nH]1`, the EC50 in “cells [1]” is 132 nM; in [2], 32 nM; in the data set “cells [3]”, 160 nM; in the data set “cells [4]”, 950 nM; in data set [9], 1770 nM; in “cells [5]” it was 1000 nM. Further, the EC50 in data set [10] worked out at 5090 nM; in data set [7], 53900 nM. The thermal shift (ΔTm) in [6] was 13 °C. For the same compound, the Activity result in [8] was “Non-Toxic”.
Take `Nc1nc2c(ncn2[C@@H]2O[C@@H]3COP(=O)(O)O[C@H]4[C@@H](O)[C@H](n5cc(-c6cc7ccccc7s6)c6c(N)ncnc65)O[C@@H]4COP(=O)(O)O[C@@H]2[C@@H]3O)c(=O)[nH]1`: the EC50 in the data set “cells [1]” is 195 nM; in data set [2], 35 nM; in the data set “cells [3]” it was 330 nM; in the data set “cells [4]”, 250 nM; in [9], 870 nM; in “cells [5]”, 350 nM. For the same compound, the concentration giving a half-maximal response (EC50) turned out to be 4040 nM in data set [10] and 1430 nM in [7]. In addition, the ΔTm in data set [6] was 13.5 °C. Also, the Activity result in data set [8] is reported as “Non-Toxic”.
On to `Nc1nc2c(ncn2[C@@H]2O[C@@H]3COP(=O)(O)O[C@H]4[C@@H](O)[C@H](n5cnc6c(N)ncnc65)O[C@@H]4COP(=O)(O)O[C@@H]2[C@@H]3O)c(=O)[nH]1`, for which, in [8], the Activity entry was “Non-Toxic”.
As for `Nc1nc2c(ncn2[C@@H]2O[C@@H]3COP(=O)(O)O[C@H]4[C@@H](O)[C@H](n5cc(-c6cc7ccccc7c7ccccc67)c6c(N)ncnc65)O[C@@H]4COP(=O)(O)O[C@@H]2[C@@H]3O)c(=O)[nH]1`, the 50% effective concentration (EC50) in the data set “cells [1]” was 900 nM; in data set [2], 61 nM; in “cells [3]”, 1400 nM; in “cells [4]”, more than 45000 nM; in the data set “cells [5]” it was more than 45000 nM; in data set [10] it was more than 200000 nM. Besides, the EC50 in data set [7] is more than 200000 nM. Besides, the ΔTm in [6] was found to be 4.4 °C. Besides, the Activity result in [8] is listed as “Non-Toxic”.
As to `Nc1nc2c(ncn2[C@@H]2O[C@@H]3COP(=O)(O)O[C@H]4[C@@H](O)[C@H](n5cc(-c6cc7ccccc7o6)c6c(N)ncnc65)O[C@@H]4COP(=O)(O)O[C@@H]2[C@@H]3O)c(=O)[nH]1`, the EC50 in “cells [1]” was 60 nM; in [2], 76 nM; in “cells [3]”, 85 nM; in “cells [4]”, 176 nM; in data set [9] it was 8330 nM; in “cells [5]”, 334 nM. Besides, the EC50 in data set [10] stood at 12800 nM; in data set [7] it was 24600 nM. Besides, the ΔTm in [6] amounted to 12.1 °C. The Activity entry in [8] is reported as “Non-Toxic”.
Consider `Nc1nc2c(ncn2[C@@H]2O[C@@H]3COP(=O)(O)O[C@H]4[C@@H](O)[C@H](n5cc(-c6ccccc6)c6c(N)ncnc65)O[C@@H]4COP(=O)(O)O[C@H]3[C@H]2O)c(=O)[nH]1`, for which the EC50 in the data set “cells [1]” was found to be 367 nM; in data set [2], 110 nM; in the data set “cells [3]”, 280 nM; in “cells [4]”, 4480 nM; in data set [9], 12600 nM; in “cells [5]”, 10400 nM. Also, the EC50 is more than 150000 nM in data set [11], 6920 nM in data set [10] and 65800 nM in data set [7]. Also, in [6], the ΔTm turned out to be 5.1 °C. Besides, the Activity result in data set [8] is listed as “Non-Toxic”.
Take `Cc1cn([C@@H]2O[C@@H]3COP(=O)(O)O[C@@H]4[C@H](O)[C@@H](COP(=O)(O)O[C@H]3[C@H]2O)O[C@H]4n2cnc3c(=O)[nH]c(N)nc32)c2ncnc(N)c12`: in data set [8], the Activity entry is given as “Non-Toxic”.
As for `Nc1ncnc2c1c(-c1ccccc1)cn2[C@@H]1O[C@@H]2COP(=O)(O)O[C@@H]3[C@H](O)[C@@H](COP(=O)(O)O[C@H]2[C@H]1O)O[C@H]3n1cc(-c2ccccc2)c2c(N)ncnc21`, the EC50 in “cells [1]” was more than 45000 nM; in [2] it was more than 45000 nM; in the data set “cells [3]”, more than 45000 nM; in “cells [4]” it was more than 45000 nM; in “cells [5]”, more than 45000 nM; in [11], more than 150000 nM. In addition, the ΔTm in data set [6] was -0.6 °C.
For `Nc1nc2c(ncn2[C@@H]2O[C@@H]3COP(=O)(O)O[C@H]4[C@@H](O)[C@H](n5cc(-c6ccco6)c6c(N)ncnc65)O[C@@H]4COP(=O)(O)O[C@@H]2[C@@H]3O)c(=O)[nH]1`, in data set [8], the Activity entry is on record as “Non-Toxic”.

The values above are taken from ChEMBL document CHEMBL5104199, “Design, Synthesis, and Biochemical and Biological Evaluation of Novel 7-Deazapurine Cyclic Dinucleotide Analogues as STING Receptor Agonists” (J Med Chem, 2022).
